{"source": "patent US10258694B2", "about": "“Skin external preparation and skin irritation-reducing method” (priority 2014, dated 2019)", "test_system": "three-dimensional skin model (EPI-212SIT)", "experiment": "Irritation test using three-dimensional skin model, MTT relative viability (Test Example 1-5)", "type": "cell-based", "conditions": "60 min exposure, 42 h post-incubation, 0.5 and 1.0 mass % pitavastatin calcium, powder", "description": "The following <5-A> to <5-G> were used as test materials to perform exposure of the epidermis to the test materials and irritation evaluation in the following manner in accordance with OECD TG439 (In Vitro skin irritation test) using a kit for skin irritation test approved by OECD (EPI-212SIT manufactured by KURABO).\nThe epidermis in the kit was pre-incubated overnight, and then 30 μL of the test material was added to the stratum corneum side of the epidermis, and a nylon mesh was placed with tweezers to expose the stratum corneum to the test material. When the test material was solid (<5-E> described below), 25 μL of DPBS was added to the stratum corneum, and immediately after that, 25 mg of the solid material was added to the stratum corneum to expose the stratum corneum to the test material. After 60 minutes, the test material was completely removed by washing. Then, post-incubation was performed for 42 hours. In the process of the post-incubation, a culture medium was replaced once after a lapse of 24 hours. After the post-incubation, a reaction with an MTT solution was performed for 3 hours using an MTT assay kit (MTT-100-JP manufactured by KURABO), and a formazan dye produced by mitochondrial metabolism was extracted to measure the OD value. Based on the measurement result, relative viability was calculated by comparison with a negative control (<5-G> described below)."}
{"smiles": "O=C([O-])C[C@H](O)C[C@H](O)/C=C/c1c(C2CC2)nc2ccccc2c1-c1ccc(F)cc1.O=C([O-])C[C@H](O)C[C@H](O)/C=C/c1c(C2CC2)nc2ccccc2c1-c1ccc(F)cc1.[Ca+2]", "note": "[pitavastatin calcium]", "values": [{"measurement": "relative viability (vs negative control DPBS)", "value": "reduced in a manner dependent on the concentration"}]}
